Columns and labels:
[1] = tested on: Human immunodeficiency virus 1; assay: Antiviral activity against HIV-1 IIIB infected in human MT4 cells assessed as reduction in viral replication by MTT assay; type: functional, organism-based; conditions: Human immunodeficiency virus 1, IIIB
[2] = tested on: Human immunodeficiency virus 1; assay: Antiviral activity against HIV-1 ROD infected in human MT4 cells assessed as reduction in viral replication by MTT assay; type: functional, organism-based
[3] = Cytotoxicity against human MT4 cells assessed as reduction on cell growth by MTT assay; type: toxicity, cell-based
[4] = Selectivity index, ratio of CC50 for cytotoxicity against human MT4 cells to EC50 of Anti-HIV activity against HIV-1 IIIB infected in human MT4 cells; type: toxicity, cell-based; conditions: read-out: Ratio CC50/EC50
[5] = tested on: Human immunodeficiency virus 1; assay: Antiviral activity against HIV-1 L100I mutant infected in human MT4 cells assessed as reduction in viral replication by MTT assay; type: functional, organism-based; conditions: Human immunodeficiency virus 1, L100I mutant
[6] = tested on: Human immunodeficiency virus 1; assay: Antiviral activity against HIV-1 K103N mutant infected in human MT4 cells assessed as reduction in viral replication by MTT assay; type: functional, organism-based; conditions: Human immunodeficiency virus 1, K103N mutant
[7] = tested on: Human immunodeficiency virus 1; assay: Antiviral activity against HIV-1 Y181C mutant infected in human MT4 cells assessed as reduction in viral replication by MTT assay; type: functional, organism-based; conditions: Human immunodeficiency virus 1, Y181C mutant
[8] = tested on: Human immunodeficiency virus 1; assay: Antiviral activity against HIV-1 Y188L mutant infected in human MT4 cells assessed as reduction in viral replication by MTT assay; type: functional, organism-based; conditions: Human immunodeficiency virus 1, Y188L mutant
[9] = tested on: Human immunodeficiency virus 1; assay: Antiviral activity against HIV-1 E138K mutant infected in human MT4 cells assessed as reduction in viral replication by MTT assay; type: functional, organism-based; conditions: Human immunodeficiency virus 1, E138K mutant
[10] = tested on: Human immunodeficiency virus 1; assay: Antiviral activity against HIV-1 F227L-V106A mutant infected in human MT4 cells assessed as reduction in viral replication by MTT assay; type: functional, organism-based; conditions: Human immunodeficiency virus 1, F227L-V106A mutant
[11] = tested on: Human immunodeficiency virus 1; assay: Antiviral activity against HIV-1 K103N-Y181C mutant infected in human MT4 cells assessed as reduction in viral replication by MTT assay; type: functional, organism-based; conditions: Human immunodeficiency virus 1, K103N-Y181C mutant
[12] = molecular target: Human immunodeficiency virus type 1 reverse transcriptase (Human immunodeficiency virus 1, UniProt Q72547); assay: Inhibition of wild type HIV-1 Reverse transcriptase

SMILES | EC50 [1] [µM] | EC50 [2] [µM] | CC50 [3] [µM] | selectivity ratio [4] | EC50 [5] [µM] | EC50 [6] [µM] | EC50 [7] [µM] | EC50 [8] [µM] | EC50 [9] [µM] | EC50 [10] [µM] | EC50 [11] [µM] | IC50 [12] [µM]
Cn1c(Cn2ccc(C(F)(F)F)c(Oc3cc(C#N)cc(-c4cccc(F)c4)c3)c2=O)n[nH]c1=O | 0.015 | > 35 | 19.1 | 1270 | 0.021 | 0.012 | 0.054 | 0.83 | 0.021 | > 35 | 0.31 | 0.056
Cc1ccc(-c2ccc(Oc3c(C(F)(F)F)ccn(Cc4n[nH]c(=O)n4C)c3=O)cc2F)cc1 | 8.05 | > 35 | 28.2 | 3.52 | – | – | – | – | – | – | – | –
Cc1cc(C#N)cc(C)c1Oc1nc(Nc2ccc(C#N)cc2)nc(N)c1Br [ETRAVIRINE] | 0.029 | > 35 | > 4.6 | > 1600 | – | – | – | 0.018 | – | – | 0.031 | –
Cn1c(Cn2ccc(C(F)(F)F)c(Oc3c(F)cc(-c4cccc(F)c4)cc3F)c2=O)n[nH]c1=O | 5.74 | > 35 | 25.4 | 4.42 | 4.15 | 6.34 | > 35 | > 35 | 6.81 | > 35 | > 35 | 26.3
Cn1c(Cn2ccc(C(F)(F)F)c(Oc3ccc(-c4ccc(C#N)cc4)c(F)c3)c2=O)n[nH]c1=O | 1.28 | > 35 | 48.5 | 37.8 | 1.19 | 3.65 | 19.4 | > 35 | 1.96 | > 35 | > 35 | 1.52
Cn1c(Cn2ccc(C(F)(F)F)c(Oc3ccc(-c4ccc(F)cc4)cc3Cl)c2=O)n[nH]c1=O | > 35 | > 35 | 16.7 | < 1 | – | – | – | – | – | – | – | –
Cc1cc(-c2cc(F)cc(C#N)c2)ccc1Oc1c(C(F)(F)F)ccn(Cc2n[nH]c(=O)n2C)c1=O | 1.33 | > 35 | 23.3 | 17.6 | 1.9 | 1.27 | 5.96 | > 35 | 1.9 | > 35 | 6.89 | 5.34
COc1cc(-c2ccc(F)c(C#N)c2)ccc1Oc1c(C(F)(F)F)ccn(Cc2n[nH]c(=O)n2C)c1=O | 17.9 | > 35 | 102 | 5.74 | 4.41 | 11.2 | 14.7 | > 35 | 21.8 | > 35 | > 35 | 42.5
Cc1ccc(-c2cc(F)c(Oc3c(C(F)(F)F)ccn(Cc4n[nH]c(=O)n4C)c3=O)c(F)c2)cc1 | > 35 | > 35 | 20.5 | < 1 | – | – | – | – | – | – | – | –
COc1cc(-c2cc(F)cc(C#N)c2)ccc1Oc1c(C(F)(F)F)ccn(Cc2n[nH]c(=O)n2C)c1=O | 10.8 | > 35 | 113 | 10.4 | 7.77 | 16 | 14.2 | > 35 | 20.5 | > 35 | > 35 | 27.8
Cn1c(Cn2ccc(C(F)(F)F)c(Oc3ccc(-c4cccc(C#N)c4)cc3F)c2=O)n[nH]c1=O | 3.68 | > 35 | 35.3 | 9.6 | 4.93 | 7.38 | > 35 | > 35 | 5.41 | > 35 | > 35 | 5
Cc1ccc(-c2ccc(Oc3c(C(F)(F)F)ccn(Cc4n[nH]c(=O)n4C)c3=O)c(C)c2)cc1 | > 35 | > 35 | 16.9 | ≤ 1 | – | – | – | – | – | – | – | –
Cc1cc(-c2ccc(F)cc2)ccc1Oc1c(C(F)(F)F)ccn(Cc2n[nH]c(=O)n2C)c1=O | 5.05 | > 35 | 26 | 5.15 | 3.26 | 3.36 | > 35 | > 35 | 3.94 | > 35 | > 35 | 5.4
COc1cc(-c2cccc(C#N)c2)ccc1Oc1c(C(F)(F)F)ccn(Cc2n[nH]c(=O)n2C)c1=O | 8.47 | > 35 | 126 | 14.8 | 5.61 | 12 | 13.4 | > 35 | 18.5 | > 35 | > 35 | 28.6
Cn1c(Cn2ccc(C(F)(F)F)c(Oc3ccc(-c4ccc(F)cc4)c(F)c3)c2=O)n[nH]c1=O | 8.92 | > 35 | 25.6 | 2.87 | – | – | – | – | – | – | – | –
Cn1c(Cn2ccc(C(F)(F)F)c(Oc3ccc(-c4ccc(F)c(C#N)c4)cc3Cl)c2=O)n[nH]c1=O | 4.53 | > 35 | 24.4 | 5.39 | 3.31 | 3.87 | > 35 | > 35 | 6.78 | > 35 | > 35 | 10.3
Cc1cc(Oc2c(C(F)(F)F)ccn(Cc3n[nH]c(=O)n3C)c2=O)ccc1-c1ccc(F)cc1 | > 35 | > 35 | 23.7 | ≤ 4 | – | – | – | – | – | – | – | –

Source: ChEMBL document CHEMBL5113480, “Discovery of novel biphenyl-substituted pyridone derivatives as potent non-nucleoside reverse transcriptase inhibitors with promising oral bioavailability” (Eur J Med Chem, 2022)
